From patent publication US8362018B2, “Substituted imidazo[1,2-a]pyrazine compounds useful for the treatment of viral infections” (Biofocus DPI, Ltd., priority 2007, dated 2013)

Assays:
[1] = cytotoxicity CC50 in HeLa cells (Table 15); type: cell-based; conditions: human, HRV-2 column
[2] = tested on: HeLa cells; experiment: cytotoxicity CC50 in HeLa cells (Table 15); type: cell-based
[3] = cytotoxicity CC50 in MDCK cells (Table 14); conditions: dog
[4] = tested on: Vero; experiment: cytotoxicity CC50 in Vero cells (Table 14)
[5] = tested on: YFV; experiment: microbe, parasite or virus in culture; type: cell-based; conditions: Yellow fever virus, BHK-21
[6] = tested on: HRV clinical isolate; experiment: antiviral activity, HRV clinical isolate in HeLa cells (Table 15); type: cell-based, human rhinoviruses (HRV); conditions: Enterovirus
[7] = tested on: CVB-2; experiment: antiviral profiling, CVB-2 in Vero cells (Table 14); type: cell-based, coxsackie B virus
[8] = tested on: HSV-1; experiment: antiviral profiling, HSV-1 in Vero cells (Table 14); type: cell-based; conditions: Human alphaherpesvirus 1; HSV-1, Vero cells
[9] = tested on: HRV-14; experiment: antiviral activity, HRV-14 in HeLa cells (Table 15); type: cell-based, human rhinovirus 14 (HRV-14); conditions: Rhinovirus B, HRV14; HRV-14 (HeLa cells)
[10] = tested on: HRV-2; experiment: antiviral activity, HRV-2 in HeLa cells (Table 15); type: cell-based, human rhinoviruses (HRV); conditions: Rhinovirus A, HRV2; HRV-2 (HeLa cells)
[11] = tested on: Influenza; experiment: antiviral profiling, Influenza in MDCK cells (Table 14); type: cell-based
[12] = tested on: Sb-1; experiment: microbe, parasite or virus in culture; type: cell-based, poliovirus; conditions: Enterovirus C, Vero
[13] = tested on: HCV; experiment: antiviral profiling, HCV in Huh7 cells (Table 14); type: cell-based; conditions: Hepatitis C virus, Huh-7
[14] = cytotoxicity CC50 in MT-4 cells (Table 14); type: cell-based; conditions: human, HIV column
[15] = tested on: HCV replicon; experiment: anti-viral assay (EC50), Table 13; type: cell-based; conditions: Hepatitis C virus, anti-viral assays
Text: The ability of a compound to inhibit HCV replication can be measured in vitro or using animal models using models and assays well known to those of skill in the art (e.g. Pietschmann et al, Clin Liver Dis. 7(1)c23-43, 2003). In vitro techniques for measuring the ability of a compound to inhibit HCV replication involve using HCV or an HCV replicon. Because HCV is difficult to grow in culture, particular in vitro techniques employ an HCV replicon.
An HCV replicon is an RNA molecule able to autonomously replicate in a cultured cell, such as Huh7. The HCV replicon expresses the HCV derived components of the replication machinery and contains cis-elements required for replication in a cultured cell. […]

[16] = cytotoxicity CC50 in Huh7 cells (Table 14); type: cell-based; conditions: human, HCV column
[17] = in vitro; conditions: Syrian hamster
[18] = cytotoxicity measurement (CC50), Table 13; type: cell-based; conditions: human, Huh7 cells
[19] = tested on: RSV; experiment: antiviral profiling, RSV in Vero cells (Table 14); type: cell-based; conditions: human respiratory syncytial virus
[20] = in vitro; conditions: African green monkey
[21] = tested on: VSV; experiment: microbe, parasite or virus in culture; type: cell-based; conditions: Vesicular stomatitis virus, Vero
[22] = tested on: HIV; experiment: antiviral profiling, HIV in MT-4 cells (Table 14); type: cell-based; conditions: Human immunodeficiency virus 1, MT4

## NS(=O)(=O)c1ccc(CNc2nccn3c(-c4ccc(O)cc4)cnc23)cc1 [Compound 1, 4-{[3-(4-Hydroxy-phenyl)-imidazol[1,2-a]pyrazin-8-ylamino]-methyl}-benzenesulfonamide]
[1]
  CC50: > 35 µg/mL
[2]; HRV clinical isolate column
  CC50(μg/mL): * (>35 μg/mL)
[2]; HRV-14 column
  CC50(μg/mL): * (>35 μg/mL)
[3]
  CC50: > 35 µM
[4]; HSV-1
  CC50: > 35 µM
[4]; RSV column
  CC50: > 35 µM
[4]; Sb-1 column
  CC50: > 35 µM
[5]
  EC50: 1 to 20 µM
[6]
  EC50: < 1 µg/mL
[7]
  EC50: < 1 µM
[8]
  EC50: > 20 µM
[9]
  EC50: < 1 µg/mL
[10]
  EC50: < 1 µg/mL
[11]
  EC50: > 20 µM
[12]
  EC50: < 1 µM
[13]
  EC50: < 1 µM
[14]
  CC50: < 35 µM
[15]
  EC50: < 1 µM
[16]
  CC50: > 35 µM
[17]
  CC50: < 35 µM
[18]
  CC50: > 35 µM
[19]
  EC50: > 20 µM
[20]
  CC50: > 35 µM
[20]; Vero cells
  CC50: > 35 µM
[21]
  EC50: > 20 µM
[22]
  EC50: 1 to 20 µM
